Test results taken from the OligoGym collection.
Where “and” joins values, the source holds several entries; their conditions need not be identical. Equal values may be shown once. HELM strings list units from the 5' end as sugar, base in round brackets, then linkage (d deoxyribose, r ribose, m 2'-O-methyl, p phosphodiester). Methylation of C is not given here. [moe] = 2'-O-(2-methoxyethyl) (MOE); [cEt] = constrained ethyl (cEt); [sp] = phosphorothioate linkage

Target: HBV
Conditions: ASO, HepG2, 0.07 µM

Substance | target mRNA inhibition
RNA1{[moe](A)[sp].[moe](G)[sp].[moe](G)[sp].[moe](T)[sp].d(G)[sp].d(A)[sp].d(A)[sp].d(G)[sp].d(C)[sp].d(G)[sp].d(A)[sp].d(A)[sp].d(G)[sp].[moe](T)[sp].[moe](G)[sp].[moe](C)[sp].[moe](A)}$$$$V2.0 | 58% and 56%
RNA1{[moe](A)[sp].[moe](G)[sp].[moe](A)[sp].[moe](A)[sp].d(G)[sp].d(T)[sp].d(C)[sp].d(C)[sp].d(A)[sp].d(C)[sp].d(C)[sp].d(A)[sp].d(C)[sp].[moe](G)[sp].[moe](A)[sp].[moe](G)[sp].[moe](T)}$$$$V2.0 | 32% and 20%
RNA1{[moe](A)[sp].[cEt](T)[sp].d(G)[sp].d(A)[sp].d(G)[sp].d(G)[sp].d(C)[sp].d(A)[sp].d(T)[sp].d(A)[sp].d(G)[sp].d(C)[sp].[cEt](A)[sp].[moe](G)[sp].[cEt](C)[sp].[moe](A)}$$$$V2.0 | 63% and 57%
RNA1{[moe](G)[sp].[cEt](C)[sp].d(A)[sp].d(T)[sp].d(A)[sp].d(G)[sp].d(C)[sp].d(A)[sp].d(G)[sp].d(C)[sp].d(A)[sp].d(G)[sp].[cEt](G)[sp].[moe](A)[sp].[cEt](T)[sp].[moe](G)}$$$$V2.0 | 76% and 78%
RNA1{[moe](G)[sp].[moe](A)[sp].[moe](G)[sp].d(A)[sp].d(A)[sp].d(G)[sp].d(T)[sp].d(C)[sp].d(C)[sp].d(A)[sp].d(C)[sp].d(C)[sp].[moe](A)[sp].[moe](C)[sp].[moe](G)[sp].[moe](A)[sp].[moe](G)}$$$$V2.0 | 31% and 28%
RNA1{[moe](G)[sp].[moe](A)[sp].[moe](A)[sp].d(G)[sp].d(C)[sp].d(G)[sp].d(A)[sp].d(A)[sp].d(G)[sp].d(T)[sp].d(G)[sp].d(C)[sp].[moe](A)[sp].[moe](C)[sp].[moe](A)[sp].[moe](C)[sp].[moe](G)}$$$$V2.0 | 76% and 60%
RNA1{[moe](T)[sp].[moe](T)[sp].[moe](T)[sp].d(A)[sp].d(T)[sp].d(G)[sp].d(C)[sp].d(C)[sp].d(T)[sp].d(A)[sp].d(C)[sp].d(A)[sp].d(G)[sp].[cEt](C)[sp].[cEt](C)[sp].[cEt](T)}$$$$V2.0 | 45% and 55%
RNA1{[moe](T)[sp].[moe](G)[sp].[moe](G)[sp].d(A)[sp].d(G)[sp].d(C)[sp].d(C)[sp].d(A)[sp].d(C)[sp].d(C)[sp].d(A)[sp].d(G)[sp].[moe](C)[sp].[moe](A)[sp].[moe](G)[sp].[moe](G)}$$$$V2.0 | 58% and 57%
RNA1{[moe](G)[sp].[moe](A)[sp].[moe](A)[sp].[moe](C)[sp].[moe](T)[sp].[moe](G)[sp].d(G)[sp].d(A)[sp].d(G)[sp].d(C)[sp].d(C)[sp].d(A)[sp].d(C)[sp].d(C)[sp].d(A)[sp].[moe](G)[sp].[moe](C)}$$$$V2.0 | 55% and 48%
RNA1{[moe](T)[sp].[moe](G)[sp].[moe](A)[sp].d(G)[sp].d(A)[sp].d(G)[sp].d(A)[sp].d(A)[sp].d(G)[sp].d(T)[sp].d(C)[sp].d(C)[sp].d(A)[sp].[cEt](C)[sp].[cEt](C)[sp].[cEt](A)}$$$$V2.0 | 35% and 41%
RNA1{[moe](G)[sp].[moe](C)[sp].[moe](A)[sp].d(C)[sp].d(T)[sp].d(A)[sp].d(G)[sp].d(T)[sp].d(A)[sp].d(A)[sp].d(A)[sp].d(C)[sp].[moe](T)[sp].[moe](G)[sp].[moe](A)[sp].[moe](G)}$$$$V2.0 | 59%
RNA1{[moe](G)[sp].[moe](A)[sp].[moe](G)[sp].[moe](G)[sp].[moe](C)[sp].d(A)[sp].d(T)[sp].d(A)[sp].d(G)[sp].d(C)[sp].d(A)[sp].d(G)[sp].d(C)[sp].d(A)[sp].[moe](G)[sp].[moe](G)[sp].[moe](A)}$$$$V2.0 | 47% and 43%
RNA1{[moe](G)[sp].[moe](T)[sp].[moe](G)[sp].[moe](A)[sp].[moe](A)[sp].d(G)[sp].d(C)[sp].d(G)[sp].d(A)[sp].d(A)[sp].d(G)[sp].d(T)[sp].d(G)[sp].d(C)[sp].[moe](A)[sp].[moe](C)}$$$$V2.0 | 70% and 58%
